Assay results from ChEMBL document CHEMBL3751666, “Efficiently functionalized oxacalix[4]arenes: Synthesis, characterization and exploration of their biological profile as novel HDAC inhibitors” (2016).
Values after ≈ are worked out from the molar mass of the structure shown. Counter-ions that a name gives are not always drawn.

How the values were obtained:
Format in all cases: functional
[1] = system: HeLa; experiment: Cytotoxicity against human HeLa cells; settings: for CC50: read-out: LC50 (the source's name)
[2] = system: Escherichia coli; experiment: Antibacterial activity against Escherichia coli by broth micro-dilution method
[3] = system: Pseudomonas aeruginosa; experiment: Antibacterial activity against Pseudomonas aeruginosa by broth micro-dilution method
[4] = system: Staphylococcus aureus; experiment: Antibacterial activity against Staphylococcus aureus by broth micro-dilution method
[5] = system: Streptococcus pyogenes; experiment: Antibacterial activity against Streptococcus pyogenes by broth micro-dilution method
[6] = system: Candida albicans; experiment: Antifungal activity against Candida albicans by broth micro-dilution method
[7] = system: Aspergillus niger; experiment: Antifungal activity against Aspergillus niger by broth micro-dilution method
[8] = system: Aspergillus clavatus; experiment: Antifungal activity against Aspergillus clavatus by broth micro-dilution method

Compound | GI50 [1] | TGI [1] | CC50 [1] | MIC [2] | MIC [3] | MIC [4] | MIC [5] | MIC [6] | MIC [7] | MIC [8]
COc1cccc2c1C(=O)c1c(O)c3c(c(O)c1C2=O)C[C@@](O)(C(=O)CO)C[C@@H]3O[C@H]1C[C@H](N)[C@H](O)[C@H](C)O1 [DOXORUBICIN HYDROCHLORIDE] | < 0.1 µM | < 0.1 µM | 95.5 µM | – | – | – | – | – | – | –
O=[N+]([O-])c1cc([N+](=O)[O-])c2cc1Oc1cc(cc(OS(=O)(=O)c3cccc4cccnc34)c1)Oc1cc(c([N+](=O)[O-])cc1[N+](=O)[O-])Oc1cc(cc(OS(=O)(=O)c3cccc4cccnc34)c1)O2 | 12.8 µM | 25.6 µM | > 100 µM | 6.25 µg/mL (≈ 6.49 µM) | 12.5 µg/mL (≈ 13 µM) | 3.12 µg/mL (≈ 3.25 µM) | 12.5 µg/mL (≈ 13 µM) | 25 µg/mL (≈ 26 µM) | 50 µg/mL (≈ 51.9 µM) | 25 µg/mL (≈ 26 µM)
O=C(COc1cc2cc(c1)Oc1cc(c([N+](=O)[O-])cc1[N+](=O)[O-])Oc1cc(OCC(=O)Nc3cccc4cccnc34)cc(c1)Oc1cc(c([N+](=O)[O-])cc1[N+](=O)[O-])O2)Nc1cccc2cccnc12 | 28.8 µM | 59.2 µM | > 100 µM | 50 µg/mL (≈ 52.7 µM) | 3.12 µg/mL (≈ 3.29 µM) | 50 µg/mL (≈ 52.7 µM) | 50 µg/mL (≈ 52.7 µM) | 50 µg/mL (≈ 52.7 µM) | 50 µg/mL (≈ 52.7 µM) | 50 µg/mL (≈ 52.7 µM)
O=C(COc1cc2cc(c1)Oc1cc(c([N+](=O)[O-])cc1[N+](=O)[O-])Oc1cc(OCC(=O)Nc3cccc4c3C(=O)c3ccccc3C4=O)cc(c1)Oc1cc(c([N+](=O)[O-])cc1[N+](=O)[O-])O2)Nc1cccc2c1C(=O)c1ccccc1C2=O | 53.4 µM | > 100 µM | > 100 µM | 25 µg/mL (≈ 22.6 µM) | 1.75 µg/mL (≈ 1.58 µM) | 50 µg/mL (≈ 45.2 µM) | 1 µg/mL (≈ 0.903 µM) | 50 µg/mL (≈ 45.2 µM) | 50 µg/mL (≈ 45.2 µM) | 25 µg/mL (≈ 22.6 µM)
O=C(COc1cc2cc(c1)Oc1cc(c([N+](=O)[O-])cc1[N+](=O)[O-])Oc1cc(OCC(=O)Nc3nc4ccccc4s3)cc(c1)Oc1cc(c([N+](=O)[O-])cc1[N+](=O)[O-])O2)Nc1nc2ccccc2s1 | 10.3 µM | 19.4 µM | > 100 µM | 6.25 µg/mL (≈ 6.5 µM) | 6.25 µg/mL (≈ 6.5 µM) | 1 µg/mL (≈ 1.04 µM) | 50 µg/mL (≈ 52 µM) | 50 µg/mL (≈ 52 µM) | 50 µg/mL (≈ 52 µM) | 12.5 µg/mL (≈ 13 µM)
O=C(COc1cc2cc(c1)Oc1cc(c([N+](=O)[O-])cc1[N+](=O)[O-])Oc1cc(OCC(=O)N(c3ccccc3)c3ccccc3)cc(c1)Oc1cc(c([N+](=O)[O-])cc1[N+](=O)[O-])O2)N(c1ccccc1)c1ccccc1 | 38.3 µM | 82.2 µM | > 100 µM | 1.75 µg/mL (≈ 1.75 µM) | 1 µg/mL (≈ 1 µM) | 1.75 µg/mL (≈ 1.75 µM) | 3.12 µg/mL (≈ 3.13 µM) | 12.5 µg/mL (≈ 12.5 µM) | 25 µg/mL (≈ 25 µM) | 12.5 µg/mL (≈ 12.5 µM)
Cc1cccc2sc(NC(=O)COc3cc4cc(c3)Oc3cc(c([N+](=O)[O-])cc3[N+](=O)[O-])Oc3cc(OCC(=O)Nc5nc6c(C)cccc6s5)cc(c3)Oc3cc(c([N+](=O)[O-])cc3[N+](=O)[O-])O4)nc12 | 7.7 µM | 13.4 µM | > 100 µM | 25 µg/mL (≈ 25.3 µM) | 12.5 µg/mL (≈ 12.6 µM) | 3.12 µg/mL (≈ 3.16 µM) | 6.25 µg/mL (≈ 6.32 µM) | 25 µg/mL (≈ 25.3 µM) | 25 µg/mL (≈ 25.3 µM) | 12.5 µg/mL (≈ 12.6 µM)
O=C(COc1cc2cc(c1)Oc1cc(c([N+](=O)[O-])cc1[N+](=O)[O-])Oc1cc(OCC(=O)Nc3nc4ccc(Cl)cc4s3)cc(c1)Oc1cc(c([N+](=O)[O-])cc1[N+](=O)[O-])O2)Nc1nc2ccc(Cl)cc2s1 | 13.7 µM | 28.6 µM | > 100 µM | 6.25 µg/mL (≈ 6.07 µM) | 6.25 µg/mL (≈ 6.07 µM) | 12.5 µg/mL (≈ 12.1 µM) | 3.12 µg/mL (≈ 3.03 µM) | 50 µg/mL (≈ 48.6 µM) | 50 µg/mL (≈ 48.6 µM) | 50 µg/mL (≈ 48.6 µM)
O=C(COc1cc2cc(c1)Oc1cc(c([N+](=O)[O-])cc1[N+](=O)[O-])Oc1cc(OCC(=O)Nc3nc4ccc(Br)cc4s3)cc(c1)Oc1cc(c([N+](=O)[O-])cc1[N+](=O)[O-])O2)Nc1nc2ccc(Br)cc2s1 | 2.1 µM | 4.6 µM | > 100 µM | 1 µg/mL (≈ 0.894 µM) | 1.75 µg/mL (≈ 1.56 µM) | 1 µg/mL (≈ 0.894 µM) | 25 µg/mL (≈ 22.3 µM) | 25 µg/mL (≈ 22.3 µM) | 25 µg/mL (≈ 22.3 µM) | 25 µg/mL (≈ 22.3 µM)
O=[N+]([O-])c1cc([N+](=O)[O-])c2cc1Oc1cc(cc(OS(=O)(=O)c3cccc4ccccc34)c1)Oc1cc(c([N+](=O)[O-])cc1[N+](=O)[O-])Oc1cc(cc(OS(=O)(=O)c3cccc4ccccc34)c1)O2 | 31.3 µM | 61.3 µM | > 100 µM | 3.12 µg/mL (≈ 3.25 µM) | 3.12 µg/mL (≈ 3.25 µM) | 6.25 µg/mL (≈ 6.5 µM) | 12.5 µg/mL (≈ 13 µM) | 12.5 µg/mL (≈ 13 µM) | 50 µg/mL (≈ 52 µM) | 50 µg/mL (≈ 52 µM)
GENTAMICIN | – | – | – | 0.005 µg/mL | 1 µg/mL | 0.025 µg/mL | 0.05 µg/mL | – | – | –
COC1=CC(=O)C[C@@H](C)[C@]12Oc1c(Cl)c(OC)cc(OC)c1C2=O [GRISEOFULVIN] | – | – | – | – | – | – | – | 50 µg/mL (≈ 142 µM) | 10 µg/mL (≈ 28.3 µM) | 10 µg/mL (≈ 28.3 µM)
COc1ccc2nc(NC(=O)COc3cc4cc(c3)Oc3cc(c([N+](=O)[O-])cc3[N+](=O)[O-])Oc3cc(OCC(=O)Nc5nc6ccc(OC)cc6s5)cc(c3)Oc3cc(c([N+](=O)[O-])cc3[N+](=O)[O-])O4)sc2c1 | 20.1 µM | 39.4 µM | > 100 µM | 50 µg/mL (≈ 49 µM) | 25 µg/mL (≈ 24.5 µM) | 12.5 µg/mL (≈ 12.2 µM) | 3.12 µg/mL (≈ 3.06 µM) | 50 µg/mL (≈ 49 µM) | 25 µg/mL (≈ 24.5 µM) | 12.5 µg/mL (≈ 12.2 µM)
O=C(COc1cc2cc(c1)Oc1cc(c([N+](=O)[O-])cc1[N+](=O)[O-])Oc1cc(OCC(=O)Nc3nc4ccc([N+](=O)[O-])cc4s3)cc(c1)Oc1cc(c([N+](=O)[O-])cc1[N+](=O)[O-])O2)Nc1nc2ccc([N+](=O)[O-])cc2s1 | 41.3 µM | 93.2 µM | > 100 µM | 12.5 µg/mL (≈ 11.9 µM) | 50 µg/mL (≈ 47.6 µM) | 1.75 µg/mL (≈ 1.67 µM) | 1.75 µg/mL (≈ 1.67 µM) | 50 µg/mL (≈ 47.6 µM) | 42.9 µg/mL (≈ 40.8 µM) | 50 µg/mL (≈ 47.6 µM)
CC1(C)S[C@@H]2[C@H](NC(=O)[C@H](N)c3ccccc3)C(=O)N2[C@H]1C(=O)O [AMPICILLIN] | – | – | – | 1 µg/mL (≈ 2.86 µM) | – | 2 µg/mL (≈ 5.72 µM) | 10 µg/mL (≈ 28.6 µM) | – | – | –
NYSTATIN | – | – | – | – | – | – | – | 10 µg/mL | 10 µg/mL | 10 µg/mL
O=C(Oc1cc2cc(c1)Oc1cc(c([N+](=O)[O-])cc1[N+](=O)[O-])Oc1cc(OC(=O)c3cccc4ccccc34)cc(c1)Oc1cc(c([N+](=O)[O-])cc1[N+](=O)[O-])O2)c1cccc2ccccc12 | 16.3 µM | 32.6 µM | > 100 µM | 1.75 µg/mL (≈ 1.97 µM) | 1.75 µg/mL (≈ 1.97 µM) | 50 µg/mL (≈ 56.3 µM) | 12.5 µg/mL (≈ 14.1 µM) | 25 µg/mL (≈ 28.1 µM) | 12.5 µg/mL (≈ 14.1 µM) | 12.5 µg/mL (≈ 14.1 µM)
CCn1cc(C(=O)O)c(=O)c2cc(F)c(N3CCNCC3)cc21 [NORFLOXACIN] | – | – | – | 1 µg/mL (≈ 3.13 µM) | 1 µg/mL (≈ 3.13 µM) | 1 µg/mL (≈ 3.13 µM) | 1 µg/mL (≈ 3.13 µM) | – | – | –
